Results on 15 compounds are retold here after patent US20240246964A1 (Arbutus Biopharma Corporation, priority 2021, published 2024).

The structures appear in SMILES notation. pEC50, pIC50: −log10 of the molar value.

Broadly, the pIC50 is −log10 of the IC50, conventionally taken in molar units. As a reminder, the pEC50 is the EC50 on a negative log10 scale, so that one unit is a factor of ten.

For assay [1], the target named is PD-L1 His protein / PD-1 Fc protein (Homo sapiens (Human), UniProt Q9NZQ7). Kind of assay: HTRF Assay (PD-1/PD-L1 interaction). It counts as binding. The conditions noted are these: PD-L1 His 6 nM, PD-1 Fc 6 nM. A general note: In TR-FRET formats the signal depends on donor and acceptor labels being close together.
Chain of PD-L1 His protein / PD-1 Fc protein (Q9NZQ7 19-238): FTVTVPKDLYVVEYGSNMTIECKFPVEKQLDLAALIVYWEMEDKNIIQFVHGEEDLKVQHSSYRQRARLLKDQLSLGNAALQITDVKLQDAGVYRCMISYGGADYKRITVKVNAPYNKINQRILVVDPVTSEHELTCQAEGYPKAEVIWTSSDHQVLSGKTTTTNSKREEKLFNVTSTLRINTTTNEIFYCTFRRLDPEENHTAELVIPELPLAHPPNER
Another assay addresses human PD-L1 (Homo sapiens (Human), UniProt Q9NZQ7). Kind of assay: T cell activation luciferase reporter cell culture system (T Cell Activation Assay). The note with it: luciferase reporter assay; PD-L1 aAPC/CHO-K1 cells with PD-1 effector Jurkat T cells. It counts as cell-based. For orientation: In a reporter assay the amount or activity of a reporter protein is the signal.

Chain of human PD-L1 (Q9NZQ7 19-290): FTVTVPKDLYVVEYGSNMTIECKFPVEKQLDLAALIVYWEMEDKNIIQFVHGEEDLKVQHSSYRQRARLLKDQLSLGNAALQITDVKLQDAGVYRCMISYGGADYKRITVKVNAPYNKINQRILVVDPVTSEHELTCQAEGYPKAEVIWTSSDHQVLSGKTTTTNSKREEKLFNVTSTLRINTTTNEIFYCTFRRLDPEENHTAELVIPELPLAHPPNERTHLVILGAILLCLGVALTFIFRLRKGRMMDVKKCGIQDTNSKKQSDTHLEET

For the compound `COc1cc(-c2nccc(-c3cccc(-c4ccc(CNC5CCN(c6ccccc6)CC5)c(OC)n4)c3Cl)c2Cl)ccc1CNC1CCN(c2ccccc2)CC1` [Example 423, N-((6-(2-Chloro-3-(3-chloro-2-(3-methoxy-4-(((1-phenylpiperidin-4-yl)amino)methyl)phenyl)pyridin-4-yl)phenyl)-2-methoxypyridin-3-yl)methyl)-1-phenylpiperidin-4-amine], the pIC50 in assay [1] was 8.11. Besides, the negative-log EC50 (pEC50) on human PD-L1 is 6.45.
In the case of `COc1cc(-c2nccc(-c3cccc(-c4ccc(CNC5CCN(c6ccncc6)CC5)c(OC)n4)c3Cl)c2Cl)ccc1CNC1CCN(c2ccncc2)CC1` [Example 424, N-((6-(2-Chloro-3-(3-chloro-2-(3-methoxy-4-(((1-(pyridin-4-yl)piperidin-4-yl)amino)methyl)phenyl)pyridin-4-yl)phenyl)-2-methoxypyridin-3-yl)methyl)-1-(pyridin-4-yl)piperidin-4-amine], the pIC50 in assay [1] is 8.44. The compound also gave a negative-log EC50 (pEC50) on human PD-L1 of 7.06.
The like results for `COc1cc(-c2nccc(-c3cccc(-c4ccc(CNC5CCOCC5)c(OC)n4)c3C)c2C)ccc1CNC1CCOCC1` [Example 425, N-(2-Methoxy-4-(4-(3-(6-methoxy-5-(((tetrahydro-2H-pyran-4-yl)amino)methyl)pyridin-2-yl)-2-methylphenyl)-3-methylpyridin-2-yl)benzyl)tetrahydro-2H-pyran-4-amine] were, in that order, 8.15 and 6.08.
The like results for `COc1cc(-c2nccc(-c3cccc(-c4ccc(CNC5CCOCC5)c(OC)n4)c3C)c2Cl)ccc1CNC1CCOCC1` [Example 426, N-((6-(3-(3-chloro-2-(3-methoxy-4-(((tetrahydro-2H-pyran-4-yl)amino)methyl)phenyl)pyridin-4-yl)-2-methylphenyl)-2-methoxypyridin-3-yl)methyl)tetrahydro-2H-pyran-4-amine] were, in that order, 8.37 and 7.01.
The like results for `COc1cc(-c2nccc(-c3cccc(-c4ccc(CNC5CCN(C(C)=O)CC5)c(OC)n4)c3Cl)c2Cl)ccc1CN(C)C1CCOCC1` [Example 427, 1-(4-(((6-(2-chloro-3-(3-chloro-2-(3-methoxy-4-((methyl(tetrahydro-2H-pyran-4-yl)amino)methyl)phenyl)pyridin-4-yl)phenyl)-2-methoxypyridin-3-yl)methyl)amino)piperidin-1-yl)ethan-1-one] were, in that order, 8.06 and 7.60.
`COc1cc(-c2nccc(-c3cccc(-c4ccc(CN5CC6(CNC(=O)C6)C5)c(OC)n4)c3F)c2Cl)ccc1CN1CC2(CNC(=O)C2)C1` [Example 438, 2-(4-(3-chloro-4-(2-fluoro-3-(6-methoxy-5-((7-oxo-2,6-diazaspiro[3.4]octan-2-yl)methyl)pyridin-2-yl)phenyl)pyridin-2-yl)-2-methoxybenzyl)-2,6-diazaspiro[3.4]octan-7-one]: in assay [1], the pIC50 is 8.51. For the same compound, on human PD-L1, the negative-log EC50 (pEC50) is 7.23.
The like results for `COc1cc(-c2nccc(-c3cccc(-c4ccc(CNC5CCN(C(C)=O)CC5)c(OC)n4)c3F)c2Cl)ccc1CNC1CCN(C(C)=O)CC1` [Example 439, 1-(4-(((6-(3-(2-(4-(((1-Acetylpiperidin-4-yl)amino)methyl)-3-methoxyphenyl)-3-chloropyridin-4-yl)-2-fluorophenyl)-2-methoxypyridin-3-yl)methyl)amino)piperidin-1-yl)ethan-1-one] were, in that order, 8.56 and 6.92.
The like results for `COc1cc(-c2nccc(-c3cccc(-c4ccc(CNC5CCOCC5)c(OC)n4)c3F)c2Cl)ccc1CNC1CCOCC1` [Example 440, N-((6-(3-(3-Chloro-2-(3-methoxy-4-(((tetrahydro-2H-pyran-4-yl)amino)-methyl)phenyl)pyridin-4-yl)-2-fluorophenyl)-2-methoxypyridin-3-yl)methyl)tetrahydro-2H-pyran-4-amine] were, in that order, 8.00 and 6.67.
In assay [1], `COc1cc(-c2nccc(-c3cccc(-c4ccc(CNC5CCOCC5)c(OC)n4)c3Cl)c2Cl)ccc1CN(C)C1CCOCC1` [Example 441, N-(4-(3-chloro-4-(2-chloro-3-(6-methoxy-5-(((tetrahydro-2H-pyran-4-yl)amino)methyl)pyridin-2-yl)phenyl)pyridin-2-yl)-2-methoxybenzyl)-N-methyltetrahydro-2H-pyran-4-amine] had a negative logarithm of the IC50 (pIC50) of 8.25. Also, at human PD-L1, the pEC50 was 6.83.
The like results for `COc1cc(-c2nccc(-c3cccc(-c4ccc(CNC5CCOCC5)c(OC)n4)c3Cl)c2Cl)ccc1CN(C)C1CCN(C(C)=O)CC1` [Example 442, 1-(4-((4-(3-chloro-4-(2-chloro-3-(6-methoxy-5-(((tetrahydro-2H-pyran-4-yl)amino)methyl)pyridin-2-yl)phenyl)pyridin-2-yl)-2-methoxybenzyl)(methyl)amino)piperidin-1-yl)ethan-1-one] were, in that order, 8.23 and 7.36.
`COCCNCc1ccc(-c2nccc(-c3cccc(-c4ccc(CNCCOC)c(OC)n4)c3Cl)c2Cl)cc1OC` [Example 446, N-((6-(2-chloro-3-(3-chloro-2-(3-methoxy-4-(((2-methoxyethyl)amino)methyl)phenyl)pyridin-4-yl)phenyl)-2-methoxypyridin-3-yl)methyl)-2-methoxyethan-1-amine] had a negative logarithm of the IC50 (pIC50) in assay [1] of 8.43. On human PD-L1, this compound gave a pEC50 of 7.51.
The like results for `COc1cc(-c2nccc(-c3cccc(-c4ccc(CNC5CCN(C(C)=O)CC5)c(OC)n4)c3F)c2F)ccc1CNC1CCN(C(C)=O)CC1` [Example 449, 1-(4-(((6-(3-(2-(4-(((1-acetylpiperidin-4-yl)amino)methyl)-3-methoxyphenyl)-3-fluoropyridin-4-yl)-2-fluorophenyl)-2-methoxypyridin-3-yl)methyl)amino)piperidin-1-yl)ethan-1-one] were, in that order, 7.89 and no more than 5.00.
The like results for `COc1cc(-c2nccc(-c3cccc(-c4ccc(CN[C@H]5CC[C@H](OC)CC5)c(OC)n4)c3Cl)c2Cl)ccc1CN[C@H]1CC[C@H](OC)CC1` [Example 450, (1r,4r)-N-((6-(2-Chloro-3-(3-chloro-2-(3-methoxy-4-((((1r,4r)-4-methoxycyclohexyl)amino)methyl)phenyl)pyridin-4-yl)phenyl)-2-methoxypyridin-3-yl)methyl)-4-methoxycyclohexan-1-amine] were, in that order, 8.63 and 7.26.
In assay [1], `COc1cc(-c2nccc(-c3cccc(-c4ccc(CNC5CCOCC5)c(OC)n4)c3F)c2F)ccc1CNC1CCOCC1` [Example 452, N-((6-(2-Fluoro-3-(3-fluoro-2-(3-methoxy-4-(((tetrahydro-2H-pyran-4-yl)amino)methyl)phenyl)pyridin-4-yl)phenyl)-2-methoxypyridin-3-yl)methyl)tetrahydro-2H-pyran-4-amine] had a negative logarithm of the IC50 (pIC50) of 7.64. In addition, the pEC50 on human PD-L1 was no more than 5.00.
The like results for `COc1cc(-c2nccc(-c3cccc(-c4ccc(CNC5CCN(C(C)=O)CC5)c(OC)n4)c3Cl)c2Cl)ccc1CN1CCOCC1` [Example 458, 1-(4-(((6-(2-Chloro-3-(3-chloro-2-(3-methoxy-4-(morpholinomethyl)phenyl)pyridin-4-yl)phenyl)-2-methoxypyridin-3-yl)methyl)amino)piperidin-1-yl)ethan-1-one] were, in that order, 7.61 and 7.08.
